Consider seven compounds from patent publication US8524778B2, “Biphenyl-4-yl-sulfonic acid arylamides and their use as therapeutic agents” (PIMCO 2664 Limited, priority 2007, dated 2013).

By IC50 is commonly meant the concentration that inhibits the measured activity by half.

“Also recorded” adds a separate entry of the source.

The nature of data set [1]: In vivo pharmacokinetics: serum levels after oral dosage (HPLC/UV). The conditions noted are these: rat; for oral absorption (blood serum levels after oral administration): oral 10 mg/kg in corn oil, over 60 minutes, FIG. 1; for metabolic stability: oral 10 mg/kg, in vivo pharmacokinetics assay. The procedure: Absorption and metabolic stability were studied using an in vivo pharmacokinetics assay. Drug levels assessed using HPLC/UV.
Following overnight starvation, male Wistar rats (250 g) were given a bolus gavage of 500 μL of a solution of test compound in corn oil (5 mg/mL). Blood samples (1 mL, whole blood) were taken at various time intervals and the serum collected following centrifugation. Samples were frozen until required for analysis.
Ethyl acetate (4 mL) was added to the defrosted serum and the samples mixed for 20 minutes. Following centrifugation, the ethyl acetate layer was collected and evaporated under a stream of nitrogen. The residue was reconstituted in mobile phase and 20 μL injected onto the chromatogram.
Standard calibration curves were prepared for each of the test compounds and were linear in the range of 1 ng/mL to 250 ng/mL.
Mobile phase: 60% 25 mM ammonium acetate, pH 4; 40% acetonitrile.
Serum levels of the following compounds, following oral dosage (10 mg/kg) over the course of 60 minutes, were investigated in vivo in rats using an HPLC/UV detection system, as described above: […]

For data set [2], the system named is mouse collagen-induced arthritis model. In words: Collagen-induced arthritis (CIA) model, joint inflammation scoring. The conditions noted are these: 10 mg/kg/day i.p. Type of data set: in vivo. As to the method: Collagen-induced arthritis (CIA) was induced in 8-week old male DBA/1 mice, by intradermal injection of 100 μL of chicken collagen type II (2 mg/mL) suspended in complete Freund's adjuvant supplemented with 2 mg/mL devitalised M. Tuberculosis into the base of the tail. This will lead to joint inflammation in >80% of the animals within 4 weeks. Treatment with ABD455 (10 mg/kg/day, delivered in corn oil) was started when joint inflammation became apparent in the first animals (in this experiment 15 days after injection), and the experiment terminated 3 weeks later. For each animal the scores for all four joints were added (maximal score=12).

The test system of data set [3] is TNFα-stimulated phosphorylation of IκB. In words: TNFα-stimulated phosphorylation of IκB in mouse macrophages (Western blot). Type of data set: cell-based. The conditions noted are these: 10 μM and 25 μM, 1 hour pre-treatment, 5 minutes TNFα, FIG. 4. As to the method:
(§1) Bone marrow cells were flushed out of the long bones of 3-5 month old mice, and cultured in 10 cm tissue culture dishes for three days in α-MEM supplemented with 10% FCS, antibiotics, and recombinant mouse M-CSF (100 ng/mL). The cells were then harvested by trypsinisation, and re-plated in 6 well-plates (3×10^5 cells per well) and cultured in medium as described above for 2 more days. Cells were then serum starved and pre-treated with test compounds for 1 hour, followed by 5 minutes stimulation with TNFα. After stimulation, the cells were washed in PBS and homogenized in lysis buffer containing PBS, 0.1% (w/v) sodium dodecyl sulphate (SDS), 0.5% (w/v) sodium deoxycholate, and 2% (v/v) protease inhibitor cocktail. The cell lysates were centrifuged as 12,000 g for 10 minutes at 4° C., and the supernatant was collected and protein concentration determined using a Bio-Rad protein assay kit. Aliquots of the cell lysate containing 50 μg protein per lane were run on a 10% denaturing acrylamide gel and blotted onto a nylon membrane. The membranes were washed in Tris buffered saline (TBS) and incubated overnight at 4° C. with the relevant primary antibodies (phospho-IκB and phospho-p42/44 Erk, Cell Signalling Technology, 1:1000 dilution). […]
For orientation: A western blot detects proteins with antibodies after separation by electrophoresis.

For data set [4], the system named is TNFα-stimulated phosphorylation of p42/44 Erk. Nature of the data set: TNFα-stimulated phosphorylation of p42/44 Erk in mouse macrophages (Western blot). Type of data set: cell-based. The following applies: 10 μM and 25 μM, 1 hour pre-treatment, 5 minutes TNFα, FIG. 5. As to the method:
as §1

Data set [5] concerns macrophage cell line J774. Nature of the data set: Alamar Blue macrophage J774 viability assay. Type of data set: cell-based. The conditions noted are these: Mus musculus; J774 cells, 72 hours with compound, n=5; Biological Study 1 table. The procedure:
The assays are based on the survival of the J774 macrophage cell line; macrophages are closely related to osteoclasts.
J774 cells were plated at 10^4 cells per well in 100 μL αMEM (α Modified Eagle Medium) in 96-well plates and grown overnight. The next day, test compounds were added to the cultures, and cultures were continued for another 72 hours. At the end of the culture period, cell survival was determined using an Alamar Blue assay as previously described (see, e.g., Nociari et al., 1998).
Alamar Blue is an oxidation-reduction sensitive indicator. The dye itself is in the oxidised state, which is blue and non-fluorescent. […] Thus the transformation from oxidised form to reduced form can be measured by fluorimetric or colourimetric means. For fluorescence measurements, 530-560 nm excitation and 590 nm emission wavelengths are typically used. For colourimetric measurements, absorbance is measured at 570 nm (reduced form) and 600 nm (oxidised form) are typically used. A simple calculation is performed to determine the relative quantities of the two species. […]
Briefly, Alamar Blue (Biosource International) was added undiluted to the each well (1:10 v/v, 10 μL). The plate was incubated at 37° C. for 3-4 hours and the fluorescence was measured at 590 nm, with a 25 nm bandwidth. […]
Background: Alamar Blue is a resazurin reagent that responds to reducing activity.

Turning to `O=S(=O)(NCCCCO)c1ccc(-c2ccc(F)cc2)cc1` [ABD200, 4′-fluoro-biphenyl-4-sulfonic acid (4-hydroxybutyl)-amide, reference compound], the “oral absorption (blood serum levels after oral administration)” value (shortened to “oral absorption”) in data set [1] was “not absorbed”.

As for `Cc1cc(S(=O)(=O)NCCCCO)ccc1-c1ccc(F)cc1F` [ABD295, 2′,4′-difluoro-2-methyl-biphenyl-4-sulfonic acid (4-hydroxy-butyl)-amide, reference compound], the “sum of the joint inflammation scores (total joint score) of study group” value in data set [2] (after 22 days, n=8, untreated group 29, FIG. 3) worked out at 17. Besides, the “oral absorption” value in data set [1] is given as “not absorbed”.

`CCc1cc(-c2ccc(F)cc2F)ccc1S(=O)(=O)NCCCCO` [ABD385, 2′,4′-difluoro-3-ethyl-biphenyl-4-sulfonic acid (4-hydroxybutyl)-amide, reference compound]: the “oral absorption” value in data set [1] is reported as “not absorbed”.

As for `O=S(=O)(Nc1cccc(CO)c1)c1ccc(-c2ccc(Cl)cc2Cl)cc1` [ABD455, 2′,4′-Dichloro-biphenyl-4-sulfonic acid (3-hydroxymethyl-phenyl)-amide], in data set [3], the “effect on TNFα-stimulated phosphorylation of IκB” value is “completely block”. Also, the “effect on TNFα-stimulated phosphorylation of p42/44 Erk” value in data set [4] is recorded as “completely block”. In addition, the “effect on collagen-induced arthritis (in words)” value in data set [2] (10 mg/kg/day) was “fully reverse the effects of collagen-induced arthritis; also recorded: much more effective in reversing the effects of collagen-induced arthritis than ABD295”. In addition, the “sum of the joint inflammation scores (total joint score) of study group” value in data set [2] (after 21 days, n=10, untreated group 47, FIG. 2) was 3. Moreover, in data set [1], the metabolic stability entry is reported as “good degree of metabolic stability”.

Take `O=S(=O)(Nc1cccc(CO)c1)c1ccc(-c2ccc(F)cc2F)cc1` [ABD456, 2′,4′-Difluoro-biphenyl-4-sulfonic acid (3-hydroxymethyl-phenyl)-amide]: the “effect on TNFα-stimulated phosphorylation of IκB” value in data set [3] is given as “completely block”. In addition, in data set [4], the “effect on TNFα-stimulated phosphorylation of p42/44 Erk” value is listed as “completely block”. Besides, in data set [1], the metabolic stability entry was “good degree of metabolic stability”.

For the compound `O=[N+]([O-])c1ccccc1-c1ccc(S(=O)(=O)Nc2cccc(CO)c2)cc1` [ABD514, 2′-Nitro-biphenyl-4-sulfonic acid (3-hydroxymethyl-phenyl)-amide], in data set [5], the IC50 was above 4000 nM.

For `O=S(=O)(Nc1ccc(CO)c(CO)c1)c1ccc(-c2ccc(Cl)cc2Cl)cc1` [ABD550, N-(3,4-Bis(hydroxymethyl)phenyl)-2′,4′-dichlorobiphenyl-4-sulfonamide], the IC50 in data set [5] is 1200 ± 500 nM.
